≈ marks a conversion by molar mass, not a printed value.
Key:
[1] = test system: E. coli strain M50 (CMY, DHA); assay: Time-dependent bacterial kill study; type: cell-based; conditions: initial count 7.18 log10 CFU/ml
Procedure: In these studies, the initial bacterial count (at 0 hours) was 7.18 log10 CFU/ml. In general, 1, 2 and 3 log bacterial kill over initial count corresponds to […] bactericidal effect. In a typical time-dependent bacterial kill studies, freshly grown bacterial cultures were diluted to target cell density (initial starting inoculum) in Cation adjusted Muller Hinton broth medium (BD, USA). The antibacterial agents (either alone or in combination) at the required concentrations were added into the culture-containing medium. The sample flasks were incubated under shaking condition (120 rpm) at 37° C. Enumeration of viable bacterial count was undertaken periodically by diluting the sample in normal saline and plating on to the Tryptic Soya Agar plates (BD, USA). The plates were incubated for 24 hours to estimate viable bacterial count. The results are expressed in terms of Log10 CFU per ml.

E. coli 13352 = assay: Antibacterial activity (MIC), agar dilution per CLSI; type: cell-based; conditions: Escherichia coli
Procedure: (§1) The biological activity of representative compounds according to the invention against various bacterial strains was investigated. In a typical study, overnight grown bacterial cultures were diluted appropriately and inoculated on the agar media containing doubling dilutions of the test compounds. Observation for growth or no growth was performed after 16-20 hours of incubation at 35±2° C. in ambient air. The overall procedure was performed as per Clinical and Laboratory Standards Institute (CLSI) recommendations (Clinical and Laboratory Standards Institute (CLSI), Performance Standards for Antimicrobial Susceptibility Testing, 20th Informational Supplement, M 100-S20, Volume 30, No. 1, 2010).

E. coli 7MP = assay: as above; type: cell-based; conditions: Escherichia coli
Procedure: as §1

K. pneumoniae H523 = assay: as above; type: cell-based; conditions: Klebsiella pneumoniae
Procedure: as §1

K. pneumoniae H522 = assay: as above; type: cell-based; conditions: Klebsiella pneumoniae
Procedure: as §1

[2] = test system: K. pneumoniae ATCC 700603; assay: as above; type: cell-based; conditions: Klebsiella pneumoniae, ATCC700603
Procedure: as §1

E. coli M 49 = assay: as above; type: cell-based; conditions: Escherichia coli, M49
Procedure: as §1

E. coli M 36 = assay: as above; type: cell-based; conditions: Escherichia coli, M36
Procedure: as §1

E. coli M 50 = assay: as above; type: cell-based; conditions: Escherichia coli, M50
Procedure: as §1

E. coli M 138 = assay: as above; type: cell-based; conditions: Escherichia coli, M138
Procedure: as §1

K. pneumoniae H525 = assay: as above; type: cell-based; conditions: Klebsiella pneumoniae
Procedure: as §1

E. coli 13351 = assay: as above; type: cell-based; conditions: Escherichia coli
Procedure: as §1

K. pneumoniae H521 = assay: as above; type: cell-based; conditions: Klebsiella pneumoniae
Procedure: as §1

E. coli 13353 = assay: as above; type: cell-based; conditions: Escherichia coli
Procedure: as §1

[3] = 2 hours, antibacterial agent alone 8 μg/ml
[4] = 4 hours, antibacterial agent alone 8 μg/ml
[5] = 6 hours, antibacterial agent alone 8 μg/ml
[6] = 8 hours, antibacterial agent alone 8 μg/ml

melting point	MIC (E. coli 13352)	MIC (E. coli 7MP)	MIC (K. pneumoniae H523)	MIC (K. pneumoniae H522)	MIC [2]	MIC (E. coli M 49)	MIC (E. coli M 36)	MIC (E. coli M 50)	MIC (E. coli M 138)	MIC (K. pneumoniae H525)	MIC (E. coli 13351)	MIC (K. pneumoniae H521)	MIC (E. coli 13353)	SMILES	Bacterial count [1, 3]	Bacterial count [1, 4]	Bacterial count [1, 5]	Bacterial count [1, 6]	also measured
														CO/N=C(\C(=O)N[C@@H]1C(=O)N2C(C(=O)[O-])=C(C[N+]3(C)CCCC3)CS[C@H]12)c1csc(N)n1 [Cefepime]	7.85 Log10 CFU per ml	8.65 Log10 CFU per ml	8.90 Log10 CFU per ml	9.0 Log10 CFU per ml	
														C=CC1=C(C(=O)O)N2C(=O)[C@@H](NC(=O)/C(=N\OCC(=O)O)c3csc(N)n3)[C@H]2SC1 [Cefixime]	7.85 Log10 CFU per ml	8.90 Log10 CFU per ml	8.78 Log10 CFU per ml	9.04 Log10 CFU per ml	
														COCC1=C(C(=O)O)N2C(=O)[C@@H](NC(=O)/C(=N\OC)c3csc(N)n3)[C@H]2SC1 [Cefpodoxime]	7.95 Log10 CFU per ml	8.70 Log10 CFU per ml	8.95 Log10 CFU per ml	9.30 Log10 CFU per ml	
														CC(C)(O/N=C(\C(=O)N[C@@H]1C(=O)N2C(C(=O)[O-])=C(C[n+]3ccccc3)CS[C@H]12)c1csc(N)n1)C(=O)O [Ceftazidime]	7.81 Log10 CFU per ml	8.90 Log10 CFU per ml	9.0 Log10 CFU per ml	8.92 Log10 CFU per ml	
														Nc1nc(/C(=C/CC(=O)O)C(=O)N[C@@H]2C(=O)N3C(C(=O)O)=CCS[C@H]23)cs1 [Ceftibuten]	7.98 Log10 CFU per ml	8.30 Log10 CFU per ml	8.74 Log10 CFU per ml	9.48 Log10 CFU per ml	
180 to 183 °C (dec.)	1 mg/L (≈ 2.62 µM)	1 mg/L (≈ 2.62 µM)	1 mg/L (≈ 2.62 µM)	1 mg/L (≈ 2.62 µM)	> 32 mg/L	4 mg/L (≈ 10.5 µM)	0.25 mg/L (≈ 0.654 µM)	0.5 mg/L (≈ 1.31 µM)	0.5 mg/L (≈ 1.31 µM)	0.5 mg/L (≈ 1.31 µM)	0.5 mg/L (≈ 1.31 µM)	1 mg/L (≈ 2.62 µM)	0.5 mg/L (≈ 1.31 µM)	O=C(NOC[C@@H]1C[C@H](F)CN1)[C@@H]1CC[C@@H]2CN1C(=O)N2OS(=O)(=O)O [Example 1, (2S, 5R)-N-{[(2S, 4S)-4-fluoropyrrolidin-2-yl]methyloxy}-7-oxo-6-(sulfooxy)-1,6-diazabicyclo[3.2.1]octane-2-carboxamide]					Bacterial count ([1]; 2 hours, Compound of Formula (Ia) alone 4 μg/ml): 7.78 Log10 CFU per ml; Bacterial count ([1]; 4 hours, Compound of Formula (Ia) alone 4 μg/ml): 6.74 Log10 CFU per ml; Bacterial count ([1]; 6 hours, Compound of Formula (Ia) alone 4 μg/ml): 5.85 Log10 CFU per ml; Bacterial count ([1]; 8 hours, Compound of Formula (Ia) alone 4 μg/ml): 6.13 Log10 CFU per ml
160 to 163 °C (dec.)	2 mg/L (≈ 5.23 µM)	2 mg/L (≈ 5.23 µM)	4 mg/L (≈ 10.5 µM)	4 mg/L (≈ 10.5 µM)	> 32 mg/L	4 mg/L (≈ 10.5 µM)	1 mg/L (≈ 2.62 µM)	2 mg/L (≈ 5.23 µM)	2 mg/L (≈ 5.23 µM)	4 mg/L (≈ 10.5 µM)	1 mg/L (≈ 2.62 µM)	4 mg/L (≈ 10.5 µM)	1 mg/L (≈ 2.62 µM)	O=C(NOC[C@@H]1C[C@@H](F)CN1)[C@@H]1CC[C@@H]2CN1C(=O)N2OS(=O)(=O)O [Example 2, (2S, 5R)-N-{[(2S, 4R)-4-fluoropyrrolidin-2-yl]methyloxy}-7-oxo-6-(sulfooxy)-1,6-diazabicyclo[3.2.1]octane-2-carboxamide]					
175 to 178 °C (dec.)	2 mg/L (≈ 5.23 µM)	2 mg/L (≈ 5.23 µM)	2 mg/L (≈ 5.23 µM)	2 mg/L (≈ 5.23 µM)	> 32 mg/L	4 mg/L (≈ 10.5 µM)	1 mg/L (≈ 2.62 µM)	1 mg/L (≈ 2.62 µM)	1 mg/L (≈ 2.62 µM)	2 mg/L (≈ 5.23 µM)	1 mg/L (≈ 2.62 µM)	2 mg/L (≈ 5.23 µM)	1 mg/L (≈ 2.62 µM)	O=C(NOC[C@H]1C[C@H](F)CN1)[C@@H]1CC[C@@H]2CN1C(=O)N2OS(=O)(=O)O [Example 3, (2S, 5R)-N-{[(2R, 4S)-4-fluoropyrrolidin-2-yl]methyloxy}-7-oxo-6-(sulfooxy)-1,6-diazabicyclo[3.2.1]octane-2-carboxamide]					
207 to 209 °C (dec.)	4 mg/L (≈ 10.5 µM)	4 mg/L (≈ 10.5 µM)	4 mg/L (≈ 10.5 µM)	4 mg/L (≈ 10.5 µM)	> 32 mg/L	4 mg/L (≈ 10.5 µM)	1 mg/L (≈ 2.62 µM)	2 mg/L (≈ 5.23 µM)	2 mg/L (≈ 5.23 µM)	2 mg/L (≈ 5.23 µM)	2 mg/L (≈ 5.23 µM)	4 mg/L (≈ 10.5 µM)	1 mg/L (≈ 2.62 µM)	O=C(NOC[C@H]1C[C@@H](F)CN1)[C@@H]1CC[C@@H]2CN1C(=O)N2OS(=O)(=O)O [Example 4, (2S, 5R)-N-{[(2R, 4R)-4-fluoropyrrolidin-2-yl]methyloxy}-7-oxo-6-(sulfooxy)-1,6-diazabicyclo[3.2.1]octane-2-carboxamide]					

— patent US10500195B2, “Antibacterial compounds” (WOCKHARDT LIMITED, priority 2017, dated 2019)
